# Source: patent US20240025849A1 (MAX DELBRÜCK-CENTRUM FÜR MOLEKULARE MEDIZIN IN DER …, priority 2020, published 2024)
# Entries after “also recorded” stand apart in the source; their conditions may differ. Like-named read-outs stand apart in the source and are kept apart here.
# What was measured:
# iNOS mRNA = experiment: Quantitative PCR of iNOS mRNA in microglia; assay type: cell-based, mouse; conditions: 2.5 μM C1
# Protocol: Quantitative PCR. The same stimulation protocol as for the Flow cytometry-based phagocytosis assay was applied. Cells were seeded overnight, treated with 2.5 μM C1 in DMSO, 125×10^−5 v/v DMSO respectively, or plain medium only for 1 hour, followed by an additional stimulation with 1 μg/ml LPS for 24 hours. Total RNA was isolated using the RNeasy Plus Mini Kit (Qiagen, Hilden, Germany). On-column DNase 1 (Qiagen) digestion was performed and total RNA was eluted in RNase-free water. RNA yield was measured using a Nanodrop 1000 (Thermo Fisher Scientific) spectrophotometer and quality was assessed using an Agilent 2100 Bioanalyzer (Agilent, Santa Clara, USA). Samples were stored at −80° C. until further use. First-strand cDNA synthesis was done with the SuperScript II reverse transcriptase (Thermo Fisher Scientific) using oligo-dT primers12-18 (Invitrogen) according to the manufacturer's instructions. Quantitative real-time PCR (qRT PCR) reactions were performed in a 7500 Fast Real-Time thermocycler (Thermo Fisher Scientific) using the SYBR Select Master Mix (Thermo Fisher Scientific) according to the manufacturer's instructions. cDNA input ranged between 1 and 5 ng/μl of total RNA transcribed into cDNA. The expression results were normalized to the expression of PActin of the same sample.
# [1] = tested on: oligodendrocyte cell line OLN-93; experiment: Propidium iodide based proliferation and cell death assay in OLN-93 cells; conditions: 2.5 μM C1, 48 hours, unstimulated
# Protocol: Cell culture of immortalized cell lines: microglia cell line BV2, and oligodendrocyte cell line OLN-93. The immortalized murine microglia cell line BV2 (Blasi et al., 1990) and the oligodendrocyte cell line OLN-93 (Richter-Landsberg and Heinrich, 1996) were incubated in T75 flasks with plain medium. The cells were split every 2 to 3 days at the dilution 1:10 before they reached confluence. To do so, the cells were washed twice with PBS, followed by up to 5 min of trypsination. The trypsination was stopped using plain medium. The cells were centrifuged at 300 g for 10 min at 4° C., the supernatant was discarded, and the cells were resuspended in new medium and seeded into a new flask.
# Propidium iodide based proliferation and cell death assay. To determine the relative proliferation and cell death, the cells were seeded into a […], let adhere for 24 hours and afterwards treated for additional 48 hours. The supernatant was removed, and the cells were washed carefully with 37° C. […] The intensity of the propidium iodide signal of the dead cells was measured using a microplate reader. Afterwards, all cells were killed with a 10 min incubation of 10% DMSO and the propidium iodide signal of all cells was measured. […] The percentage of dead cells was calculated by dividing the dead-cell-signal by the all-cell-signal. Proliferation was calculated as a relative value to the plain medium control.
# [2] = tested on: primary cultured neonatal microglia; experiment: IFNγ induced NO release, Griess assay; assay type: cell-based, mouse; conditions: for level of NO, % of its initial concentration (stimulated control): 100 ng/ml IFNγ 48 hours
# Protocol: (§1) Primary cultured neonatal microglia. For preparation of cultured neonatal microglia, P0-P3 mice were used. 10 brains were extracted, meninges and cerebellum were removed and put on ice with Hank's balanced salt solution (HBSS). The dissected brains were washed 3 times before adding 400 μL trypsin (0.1 mg/L) and DNAse (5 μg/L) in phosphate buffered saline (PBS). After 2 min of incubation with this solution, the reaction was blocked by adding plain medium. After removal of the medium, 1 mg DNAse was added and the cells were mechanically dissociated, with a Pasteur pipette followed by a glass pipette. The cells were centrifuged for 10 min at 129 g at 4° C. The supernatant was discarded. The pellet was resuspended in plain medium and plated (2.5 brains/flask) in Poly-L-Lysine coated flasks. The cells were washed after 2 days with PBS and incubated for another 7 days in plain medium. Afterwards the medium was replaced by plain medium with 33% L929 conditioned medium. After 2 days, cells were harvested by shaking them for 30 min at 150 rpm. The supernatant was centrifuged for 10 min at 129 g at 4° C. The cells were plated into a 96 well plate (100 000 cells/well, 200 μL medium per well). This procedure could be repeated 2 times with a 2 day interval.
# (§2) Griess assay. Cells were seeded according to the protocols described above, after compounds and stimuli were added, 100 μl of supernatant was transferred into a new 96 well plate and 100 μl freshly mixed Griess reagent were added. Griess reagent was composed of reagent A (100 mg Naphthylethylene in 50 ml aqua dest.) and reagent B (1 g Sulfanilamide, […] H3PO4 (85%) in 44 mL aqua dest.) mixed 1:1. The solution was carefully mixed and the absorbance was determined in a microplate reader at a wavelength of 550 nm.
# In order to test whether C1 decreases NO release induced by other stimulation agents besides LPS which is mimicking a bacterial infection, the inventors used IFNγ to mimic a Th1 cell response (Yau et al., 2016) and PolyIC to mimic an anti-viral response (Jiang and Pisetsky, 2006). Given that our aim is to determine the compound's effect on already stimulated microglia (LPS, IFNγ, and PolyIC), each individual experiment is normalized to its stimulated control.
# [3] = tested on: primary cultured neonatal microglia; experiment: LPS induced NO release, Griess assay, laboratory scaled setup; assay type: cell-based, mouse; conditions: for IC50: 96 well plate, 1 h C1, then 1 μg/ml LPS 48 h, 2 nM to 20 μM, read-out: IC50, LPS induced NO release
# Protocol: as §1, §2
# Dissolved sodium nitrite in plain medium served as a standard. Total amount of nitrite was calculated by a linear regression of the standard curve.
# The activity of the compounds listed in column 1 of Table 1 as inhibitors of NO production was compared in murine primary cultured neonatal microglia as described above.
structure (smiles),measurement,setting,value
COc1ccc(NC(=O)C(NC(=O)C2CCCN2C(=O)OCc2ccccc2)c2ccc(OC)cc2)cc1 (stereo not shown) [C1],"iNOS mRNA level, basal conditions",iNOS mRNA,no significant effect; also recorded: did not change
same,iNOS mRNA level after LPS stimulation,iNOS mRNA; 1 μg/ml LPS 24 hours,did not change mRNA significantly
same,OLN-93 cell death rate,[1],no significant effect
same,proliferation of OLN-93 cells,[1],did not show an effect; also recorded: Neither C1 nor DMSO changed the proliferation
same,"level of NO, % of its initial concentration (stimulated control)",[2]; 25 nM C1,84%
same,"level of NO, % of its initial concentration (stimulated control)",[2]; 250 nM C1,41%
same,"level of NO, % of its initial concentration (stimulated control)",[2]; 2.5 μM C1,22%
same,NO release upon stimulation with IFNγ,[2]; pre-treatment with C1,dose dependent decrease
same,IC50,[3],250 nM
same,NO release in unstimulated microglia,"[3]; C1 alone 0.025, 0.25, 2.5 μM, 48 hours, no LPS",did not show any significant difference; also recorded: did neither change the NO release
same,IC50,"[3]; Mus musculus, Microglia",252 nM
same,NO concentration in supernatant vs plain medium / DMSO,"[3]; post-treatment with 2.5 μM C1 after 24 hours LPS, from 8 hours (plain medium), 12 hours (DMSO)",significantly reduced; also recorded: significant reduction
same,calculated plateau of NO concentration in supernatant,"[3]; post-treatment: 24 hours LPS, medium change, then 2.5 μM C1 up to 60 hours",7 µM
